Laboratory results published in US20250195521A1 (Revolution Medicines, Inc., priority 2020, published 2025).
Like-named read-outs stand apart in the source and are kept apart here.

Conditions: 18-membered ring

With `CCn1c(-c2cccnc2[C@H](C)OC)c2c3cc(ccc31)-c1csc(n1)C[C@H](NC(=O)OC(C)(C)C)C(=O)N1CCC[C@H](N1)C(=O)OCC(C)(C)C2` as the compound, how does the ring closure, isolated yield (from CCn1c(-c2cccnc2[C@H](C)OC)c(CC(C)(C)CO)c2cc(-c3csc(C[C@H](NC(=O)OC(C)(C)C)C(=O)N4CCC[C@@H](C(=O)O)N4)n3)ccc21, ester bond, EDCI/HOBt/DIEA, DCM, 12.65 mM, 16.0 h) read?
The ring closure, isolated yield was 81.1%.

For `CCn1c(-c2cccnc2[C@H](C)OC)c2c3cc(ccc31)-c1csc(n1)C[C@H](NC(=O)OC(C)(C)C)C(=O)N1CC[C@H](C)[C@H](N1)C(=O)OCC(C)(C)C2`, which ring closure, isolated yield (from CCn1c(-c2cccnc2[C@H](C)OC)c(CC(C)(C)COC(=O)[C@H]2NN(C(=O)[C@H](Cc3nc(Br)cs3)NC(=O)OC(C)(C)C)CC[C@@H]2C)c2cc(B3OC(C)(C)C(C)(C)O3)ccc21, cc_pd bond, Pd(DtBPF)Cl2/K3PO4, dioxane/H2O 5:1, 17.5 mM, 60.0 °C, 1.0 h) is on record?
Its ring closure, isolated yield is 44.7%.

For `CCn1c(-c2cccnc2[C@H](C)OC)c2c3cc(ccc31)N1CCC[C@@H](C[C@H](NC(=O)OCc3ccccc3)C(=O)N3CCC[C@H](N3)C(=O)OCC(C)(C)C2)C1`, which ring closure, isolated yield (from CCn1c(-c2cccnc2[C@H](C)OC)c(CC(C)(C)CO)c2cc(N3CCC[C@@H](C[C@H](NC(=O)OCc4ccccc4)C(=O)N4CCC[C@@H](C(=O)O)N4)C3)ccc21, ester bond, EDCI/HOBt/DIEA, DCM, 36.7 mM, 25.0 °C, 6.0 h) is on record?
Its ring closure, isolated yield is 36%.

Which ring closure, isolated yield (cc_pd bond, Pd(dtbpf)Cl2/K3PO4, toluene/1,4-dioxane/H2O 3:1:1, 57.0 mM, 60.0 °C) does the source give for “(2S,6S)—N-((6^3S,3S,4S,Z)-3-(2-(dimethylamino) ethoxy)-1^1-ethyl-1^2-(2-((S)-1-methoxyethyl) pyridin-3-yl)-10, 10-dimethyl-5,7-dioxo-6^1,6^2,6^3,6^4,6^5,6^6-hexahydro-1^1H-8-oxa-2 (4,2)-thiazola-1 (5,3)-indola-6 (1,3)-pyridazinacycloundecaphane-4-yl)-2,4,6-trimethylpiperazine-1-carboxamide” here?
The ring closure, isolated yield was 50%.

Which ring closure, isolated yield (cc_pd bond, Pd(DtBPF)Cl2/K3PO4, dioxane/H2O 5:1, 40.0 mM, 80.0 °C) does the source give for “(6^3S,3S,4S,Z)-4-(dibenzylamino)-1^1-ethyl-3-methoxy-1^2-(2-((S)-1-methoxyethyl) pyridin-3-yl)-10, 10-dimethyl-6^1,6^2,6^3,6^4,6^5,6^6-hexahydro-1^1H-8-oxa-2 (4,2)-thiazola-1 (5,3)-indola-6 (1,3)-pyridazinacycloundecaphane-5,7-dione” here?
Its ring closure, isolated yield is 44.4%.

For “(9H-fluoren-9-yl) methyl (1R,5S,7r)-7-(5-((6^3S,3S,4S,Z)-4-((tert-butoxycarbonyl) amino)-3-ethoxy-1^1-ethyl-10, 10-dimethyl-5,7-dioxo-6^1,6^2,6^3,6^4,6^5,6^6-hexahydro-1^1H-8-oxa-2 (4,2)-thiazola-1 (5,3)-indola-6 (1,3)-pyridazinacycloundecaphane-12-yl)-6-((S)-1-methoxyethyl) pyridin-3-yl)-3-oxa-9-azabicyclo[3.3.1]nonane-9-carboxylate”, which ring closure, isolated yield (cc_pd bond, Pd(DtBPF)Cl2/K3PO4, toluene/1,4-dioxane/H2O (3:1:1), […], 80.0 °C) is on record?
Its ring closure, isolated yield is 65%.

For “(9H-fluoren-9-yl) methyl ((6^3S,4S,Z)-3-(dimethylamino)-1^1-ethyl-1^2-(2-((S)-1-methoxyethyl) pyridin-3-yl)-10, 10-dimethyl-5,7-dioxo-6^1,6^2,6^3,6^4,6^5,6^6-hexahydro-1^1H-8-oxa-2 (4,2)-thiazola-1 (5,3)-indola-6 (1,3)-pyridazinacycloundecaphane-4-yl) carbamate”, which ring closure, isolated yield (cc_pd bond, Pd(dtbpf)Cl2/K3PO4, toluene/1,4-dioxane/H2O 3:1:1, 27.3 mM, 60.0 °C) is on record?
The ring closure, isolated yield was 19%.

With “(9H-fluoren-9-yl)methyl-7-(5-((6^3S,3S,4S,Z)-4-((tert-butoxycarbonyl) amino)-3-ethoxy-1^1-ethyl-10,10-dimethyl-5,7-dioxo-6^1,6^2,6^3,6^4,6^5,6^6-hexahydro-1^1H-8-oxa-2 (4,2)-thiazola-1 (5,3)-indola-6 (1,3)-pyridazinacycloundecaphane- 12-yl)-6-((S)-1-methoxyethyl) pyridin-3-yl)-3-oxa-9-azabicyclo[3.3.1] non-6-ene-9-carboxylate” as the compound, how does the ring closure, isolated yield (cc_pd bond, Pd(dppf)Cl2.DCM/K3PO4, toluene/dioxane/H2O 3:1:1, 205.0 mM, 80.0 °C) read?
Its ring closure, isolated yield is 49%.

With “benzyl 4-(5-((3′S,3′S,4′S,Z)-4′-((tert-butoxycarbonyl) amino)-3′-ethoxy-1′-(2-isopropoxyethyl)-5′, 7′-dioxospiro[cyclopropane-1,10′-8-oxa-2 (4,2)-thiazola-1 (5,3)-indola-6 (1,3)-pyridazinacycloundecaphan]-2′-yl)-6-((S)-1-methoxyethyl) pyridin-3-yl) piperazine-1-carboxylate” as the compound, how does the ring closure, isolated yield (cc_pd bond, XPhos-Pd-G3/XPhos/K3PO4, toluene/1,4-dioxane/H2O 3:1:1, 28.0 mM, 65.0 °C) read?
The ring closure, isolated yield was 27%.

Which ring closure, isolated yield (cc_pd bond, Pd(dtbpf)Cl2/K3PO4, toluene/1,4-dioxane/H2O 3:1:1, 16.0 mM, 65.0 °C) does the source give for “benzyl 4-(5-((6^3S,3S,4S,Z)-4-((tert-butoxycarbonyl) amino)-3-ethoxy-1^1-(2-isopropoxyethyl)-10,10-dimethyl-5,7-dioxo-6^1,6^2,6^3,6^4,6^5,6^6-hexahydro-1^1H-8-oxa-2 (4,2)-thiazola-1 (5,3)-indola-6 (1,3)- pyridazinacycloundecaphane-12-yl)-6-((S)-1-methoxyethyl) pyridin-3-yl) piperazine-1-carboxylate” here?
The ring closure, isolated yield was 44%.

With “benzyl 4-((((6^3S,3S,4S,Z)-4-((tert-butoxycarbonyl) amino)-1^1-ethyl-1^2-(2-((S)-1-methoxyethyl) pyridin-3-yl)-10,10-dimethyl-5,7-dioxo-6^1,6^2,6^3,6^4,6^5,6^6-hexahydro-1^1H-8-oxa-2 (4,2)-thiazola-1 (5,3)-indola-6 (1,3)-pyridazinacycloundecaphane-3-yl)oxy) methyl)-3,6-dihydropyridine-1 (2H)-carboxylate” as the compound, how does the ring closure, isolated yield (cc_pd bond, Pd(dtbpf)Cl2/K3PO4, toluene/dioxane/H2O, 60.0 °C) read?
Its ring closure, isolated yield is 32%.

With “benzyl 5-((6^3S,3S,4S,Z)-4-((tert-butoxycarbonyl) amino)-3-ethoxy-1^1-ethyl-10, 10-dimethyl-5,7-dioxo-6^1,6^2,6^3,6^4,6^5,6^6-hexahydro-1^1H-8-oxa-2 (4,2)-thiazola-1 (5,3)-indola-6 (1,3)-pyridazinacycloundecaphane-12-yl)-6-((S)-1-methoxyethyl)-3′, 6′-dihydro-[3,4′-bipyridine]-1′ (2′H)-carboxylate” as the compound, how does the ring closure, isolated yield (cc_pd bond, Pd(dtbpf)Cl2/K3PO4, toluene/1,4-dioxane/H2O 3:1:1, 40.7 mM, 70.0 °C) read?
The ring closure, isolated yield was 39%.

For “tert-butyl ((2^2R,6^3S,4S)-1^1-ethyl-1^2-(2-((S)-1-methoxyethyl) pyridin-3-yl)-22-(methoxymethyl)-10,10-dimethyl-5,7-dioxo-2^1,2^2,2^3,2^6,6^1,6^2,6^3,6^4,6^5,6^6-decahydro-1^1H-8-oxa-1 (5,3)-indola-6 (1,3)-pyridazina-2 (5,1)-pyridinacycloundecaphane-4-yl) carbamate”, which ring closure, isolated yield (cc_pd bond, Pd(dppf)Cl2/K3PO4, toluene/dioxane/H2O, […], 70.0 °C) is on record?
Its ring closure, isolated yield is 30%.

With “tert-butyl ((6^3S,3S,4S,Z)-3-(2,2-difluoroethoxy)-1^1-ethyl-1^2-(2-((S)-1-methoxyethyl) pyridin-3-yl)-10,10-dimethyl-5,7-dioxo-6^1,6^2,6^3,6^4,6^5,6^6-hexahydro-1^1H-8-oxa-2 (4,2)-thiazola-1 (5,3)-indola-6 (1,3)-pyridazinacycloundecaphane-4-yl) carbamate” as the compound, how does the ring closure, isolated yield (cc_pd bond, Pd(dtbpf)Cl2/K3PO4, toluene/dioxane/H2O, 10.0 mM, 60.0 °C) read?
Its ring closure, isolated yield is 59%.

With “tert-butyl ((6^3S,3S,4S,Z)-3-ethoxy-1^1-ethyl-1^2-(2-((S)-1-methoxyethyl) pyridin-3-yl)-10, 10-dimethyl-5,7-dioxo-6^1,6^2,6^3,6^4,6^5,6^6-hexahydro-1^1H-8-oxa-2 (4,2)-thiazola-1 (5,3)-indola-6 (1,3)-pyridazinacycloundecaphane-4-yl) carbamate” as the compound, how does the ring closure, isolated yield (cc_pd bond, Pd(dtbpf)Cl2/K3PO4, toluene/dioxane/H2O, 26.7 mM, 60.0 °C) read?
The ring closure, isolated yield was 31%.

Which ring closure, isolated yield (cc_pd bond, Pd(dppf)Cl2/K2CO3, toluene/1,4-dioxane/H2O 3:1:1, 20.0 mM, 65.0 °C) does the source give for “tert-butyl ((6^3S,4S)-2^3-((tert-butyldiphenylsilyl)oxy)-1^1-ethyl-1^2-(2-((S)-1-methoxyethyl) pyridin-3-yl)-10,10-dimethyl-5,7-dioxo-2^1,2^2,2^3,2^6,6^1,6^2,6^3,6^4,6^5,6^6-decahydro-1^1H-8-oxa-1 (5,3)-indola-6 (1,3)- pyridazina-2 (5,1)-pyridinacycloundecaphane-4-yl) carbamate” here?
Its ring closure, isolated yield is 42%.

With “tert-butyl ((6^3S,4S)-25-(difluoromethyl)-1^1-ethyl-1^2-(2-((S)-1-methoxyethyl) pyridin-3-yl)-10,10-dimethyl-5,7-dioxo-6^1,6^2,6^3,6^4,6^5,6^6-hexahydro-1^1H-8-oxa-1 (5,3)-indola-6 (1,3)-pyridazina-2 (1,3)-benzenacycloundecaphane-4-yl) carbamate” as the compound, how does the ring closure, isolated yield (ester bond, EDCI/HOBt/DIEA, DCM) read?
The ring closure, isolated yield was 51%.

For “tert-butyl ((6^3S,4S,Z)-1^1-ethyl-1^2-(2-((S)-1-methoxyethyl) pyridin-3-yl)-10,10-dimethyl-5,7-dioxo-6^1,6^2,6^3,6^4,6^5,6^6-hexahydro-1^1H-8-oxa-2 (2,4)-oxazola-1 (5,3)-indola-6 (1,3)-pyridazinacycloundecaphane-4-yl) carbamate”, which ring closure, isolated yield (cc_pd bond, XPhos Pd G3/XPhos/K3PO4, dioxane/H2O 5:1, 55.0 mM, 70.0 °C) is on record?
Its ring closure, isolated yield is 56%.

For “tert-butyl ((6^3S,4S,Z)-1^1-ethyl-1^2-(2-((S)-1-methoxyethyl) pyridin-3-yl)-21, 10, 10-trimethyl-5,7-dioxo-6^1,6^2,6^3,6^4,6^5,6^6-hexahydro-11H,21H-8-oxa-1 (5,3)-indola-6 (1,3)-pyridazina-2 (5,3)-triazolacycloundecaphane-4-yl) carbamate”, which ring closure, isolated yield (cc_pd bond, XPhos Pd G3/XPhos/K3PO4, dioxane/H2O 5:1, 71.7 mM, 75.0 °C) is on record?
Its ring closure, isolated yield is 56.8%.
